What was measured:
Assay type in all cases: in vivo
[1] = test system: Echinochloa crus-galli var. formosensis; assay: Test Example 6: herbicidal effect test by application during growth period of paddy rice (low dose); details: Echinochloa crus-galli; 7.5 g per 10 ares; applied seven days after sowing, flooded pots; 14 days after application; read-out: weed inhibition rate
How it was run: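 Puddled, fertilised paddy soil was sown with 30 seeds per species and flooded to about 3 cm. After 7 days in a glass greenhouse, the diluted emulsifiable concentrate went into the water by dropper at 7.5 g/10 a. Effect scored at 14 days.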

Digitaria ciliaris [2] = assay: Test Example 4: herbicidal effect test by stem and leaf treatment in upland field; details: Digitaria ciliaris; 120 g per 10 ares; sprayed seven days after sowing, upland soil; 14 days after application; read-out: weed inhibition rate
Scirpus juncoides [3] = assay: Test Example 2: herbicidal effect test by application during growth period of paddy rice; details: Schoenoplectiella juncoides; 120 g per 10 ares; applied seven days after sowing, flooded pots; 14 days after application; read-out: weed inhibition rate
How it was run: (§1)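 Herbicidal effect was scored 14 days after treatment, in duplicate per concentration. Weeds sown 0–1 cm deep in puddled, fertilized paddy soil under about 3 cm of standing water received a water-diluted emulsifiable concentrate by dropper 7 days post-sowing, at 120 g a.i. per 10 ares.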

Monochoria vaginalis [4] = assay: as above; details: Pontederia vaginalis; 120 g per 10 ares; applied seven days after sowing, flooded pots; 14 days after application; read-out: weed inhibition rate
How it was run: as §1

[5] = test system: Echinochloa crus-galli var. formosensis; assay: as above; details: Echinochloa crus-galli; 120 g per 10 ares; applied seven days after sowing, flooded pots; 14 days after application; read-out: weed inhibition rate
How it was run: as §1

Scirpus juncoides [6] = assay: Test Example 5: herbicidal effect test by soil application in paddy rice (low dose); details: Schoenoplectiella juncoides, 336 h, 7.5 g per 10 ares, applied immediately after sowing, flooded pots, 14 days after application, read-out: weed inhibition rate
How it was run: (§2)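 Dose of 7.5 g a.i. per 10 ares, applied by dropper as diluted emulsifiable concentrate to flooded (~3 cm) paddy pots immediately after sowing seeds at 0–1 cm. Kept in a glass greenhouse; duplicate pots rated at 14 days post-application.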

Monochoria vaginalis [7] = assay: as above; details: Pontederia vaginalis, 336 h, 7.5 g per 10 ares, applied immediately after sowing, flooded pots, 14 days after application, read-out: weed inhibition rate
How it was run: as §2

Echinochloa crus-galli [8] = assay: Test Example 4: herbicidal effect test by stem and leaf treatment in upland field; details: Echinochloa crus-galli; 120 g per 10 ares; sprayed seven days after sowing, upland soil; 14 days after application; read-out: weed inhibition rate
Digitaria ciliaris [9] = assay: Test Example 7: herbicidal effect test by soil application in upland field (low dose); details: Digitaria ciliaris, 7.5 g per 10 ares, sprayed one day after sowing, 14 days after application, read-out: weed inhibition rate
How it was run: (§3)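 Pre-emergence soil treatment: 7.5 g a.i. per 10 a applied as water-diluted emulsifiable concentrate (100 L/10 a) to soil surface one day post-sowing in alluvial loam. Inhibition (%) assessed at 14 days, duplicate pots per concentration.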

Echinochloa crus-galli [10] = assay: as above; details: Echinochloa crus-galli, 7.5 g per 10 ares, sprayed one day after sowing, 14 days after application, read-out: weed inhibition rate
How it was run: as §3

[11] = test system: Echinochloa crus-galli var. formosensis; assay: Test Example 5: herbicidal effect test by soil application in paddy rice (low dose); details: Echinochloa crus-galli, soil, 336 h; 7.5 g per 10 ares; applied immediately after sowing, flooded pots; 14 days after application; read-out: weed inhibition rate
How it was run: as §2

CC(C)[C@]12C[C@@H](OCc3ccccc3F)[C@](C)(CC1OCC1CC1)O2 (mixture of isomers) [1-921, (1S,2R,4R,SR)-5-(cyclopropylmethoxy)-2-[(2-fluorophenyl)methoxy]-1-methyl-4-isopropyl-7-oxabicyclo[2.2.1]heptane]
≥ 80%: inhibition at 75 g/ha [1] | inhibition at 1200 g/ha (Digitaria ciliaris [2]) | inhibition at 1200 g/ha (Scirpus juncoides [3]) | inhibition at 1200 g/ha (Monochoria vaginalis [4]) | inhibition at 1200 g/ha [5] | inhibition at 75 g/ha (Scirpus juncoides [6]) | inhibition at 75 g/ha (Monochoria vaginalis [7]) | inhibition at 1200 g/ha (Echinochloa crus-galli [8]) | inhibition at 75 g/ha (Digitaria ciliaris [9]) | inhibition at 75 g/ha (Echinochloa crus-galli [10]) | inhibition at 75 g/ha [11]

CC(C)[C@]12C[C@@H](OCc3ccccc3F)[C@](C)(C[C@@H]1F)O2 [1-5, (1R,2S,4S,5R)-2-fluoro-5-((2-fluorobenzyl)oxy)-1-isopropyl-4-methyl-7-oxabicyclo[2.2.1]heptane]
≥ 80%: inhibition at 75 g/ha [1] | inhibition at 1200 g/ha (Digitaria ciliaris [2]) | inhibition at 1200 g/ha (Scirpus juncoides [3]) | inhibition at 1200 g/ha (Monochoria vaginalis [4]) | inhibition at 1200 g/ha [5] | inhibition at 75 g/ha (Scirpus juncoides [6]) | inhibition at 75 g/ha (Monochoria vaginalis [7]) | inhibition at 1200 g/ha (Echinochloa crus-galli [8]) | inhibition at 75 g/ha (Digitaria ciliaris [9]) | inhibition at 75 g/ha (Echinochloa crus-galli [10]) | inhibition at 75 g/ha [11]

CC(C)[C@]12C[C@@H](OCc3ccccc3)[C@](C)(C[C@@H]1Br)O2 [1-15, (1S,2R,4R,5S)-5-bromo-1-methyl-2-phenylmethoxy-4-isopropyl-7-oxabicyclo[2.2.1]heptane]
≥ 80%: inhibition at 75 g/ha [1] | inhibition at 1200 g/ha (Digitaria ciliaris [2]) | inhibition at 1200 g/ha (Scirpus juncoides [3]) | inhibition at 1200 g/ha (Monochoria vaginalis [4]) | inhibition at 1200 g/ha [5] | inhibition at 75 g/ha (Scirpus juncoides [6]) | inhibition at 75 g/ha (Monochoria vaginalis [7]) | inhibition at 1200 g/ha (Echinochloa crus-galli [8]) | inhibition at 75 g/ha (Digitaria ciliaris [9]) | inhibition at 75 g/ha (Echinochloa crus-galli [10]) | inhibition at 75 g/ha [11]

CC(C)[C@]12C[C@@H](OCc3ccccc3Cl)[C@](C)(C[C@@H]1Br)O2 [1-20, (1S,2R,4R,5S)-5-bromo-2-[(2-chlorophenyl)methoxy]-1-methyl-4-isopropyl-7-oxabicyclo[2.2.1]heptane]
≥ 80%: inhibition at 75 g/ha [1] | inhibition at 1200 g/ha (Digitaria ciliaris [2]) | inhibition at 1200 g/ha (Scirpus juncoides [3]) | inhibition at 1200 g/ha (Monochoria vaginalis [4]) | inhibition at 1200 g/ha [5] | inhibition at 75 g/ha (Scirpus juncoides [6]) | inhibition at 75 g/ha (Monochoria vaginalis [7]) | inhibition at 1200 g/ha (Echinochloa crus-galli [8]) | inhibition at 75 g/ha (Digitaria ciliaris [9]) | inhibition at 75 g/ha (Echinochloa crus-galli [10]) | inhibition at 75 g/ha [11]

CC(C)[C@]12C[C@@H](OCc3c(F)cccc3F)[C@](C)(C[C@@H]1Br)O2 [1-21, (1S,2R,4R,5S)-5-bromo-2-[(2,6-difluorophenyl)methoxy]-1-methyl-4-isopropyl-7-oxabicyclo[2.2.1]heptane]
≥ 80%: inhibition at 75 g/ha [1] | inhibition at 1200 g/ha (Digitaria ciliaris [2]) | inhibition at 1200 g/ha (Scirpus juncoides [3]) | inhibition at 1200 g/ha (Monochoria vaginalis [4]) | inhibition at 1200 g/ha [5] | inhibition at 75 g/ha (Scirpus juncoides [6]) | inhibition at 75 g/ha (Monochoria vaginalis [7]) | inhibition at 1200 g/ha (Echinochloa crus-galli [8]) | inhibition at 75 g/ha (Digitaria ciliaris [9]) | inhibition at 75 g/ha (Echinochloa crus-galli [10]) | inhibition at 75 g/ha [11]

CC(C)[C@]12C[C@@H](OCc3ccccc3F)[C@](C)(C[C@H]1C)O2 [1-94, (1S,2R,4R,5R)-2-[(2-fluorophenyl)methoxy]-1,5-dimethyl-4-isopropyl-7-oxabicyclo[2.2.1]heptane]
≥ 80%: inhibition at 75 g/ha [1] | inhibition at 1200 g/ha (Digitaria ciliaris [2]) | inhibition at 1200 g/ha (Monochoria vaginalis [4]) | inhibition at 1200 g/ha [5] | inhibition at 75 g/ha (Scirpus juncoides [6]) | inhibition at 75 g/ha (Monochoria vaginalis [7]) | inhibition at 1200 g/ha (Echinochloa crus-galli [8]) | inhibition at 75 g/ha (Digitaria ciliaris [9]) | inhibition at 75 g/ha (Echinochloa crus-galli [10]) | inhibition at 75 g/ha [11]

CC(C)=CCO[C@@H]1C[C@]2(C(C)C)O[C@@]1(C)C[C@@H]2Br [1-672, (1S,2R,4R,5S)-5-bromo-1-methyl-2-(3-methylbut-2-enoxy)-4-isopropyl-7-oxabicyclo[2.2.1]heptane]
≥ 80%: inhibition at 75 g/ha [1] | inhibition at 1200 g/ha (Digitaria ciliaris [2]) | inhibition at 1200 g/ha (Scirpus juncoides [3]) | inhibition at 1200 g/ha (Monochoria vaginalis [4]) | inhibition at 1200 g/ha [5] | inhibition at 75 g/ha (Scirpus juncoides [6]) | inhibition at 75 g/ha (Monochoria vaginalis [7]) | inhibition at 1200 g/ha (Echinochloa crus-galli [8]) | inhibition at 75 g/ha [11]

CC(C)[C@]12C[C@@H](OCc3cccs3)[C@](C)(C[C@@H]1Br)O2 [1-721, (1S,2R,4R,5S)-5-bromo-1-methyl-4-isopropyl-2-(thiophen-2-ylmethoxy)-7-oxabicyclo[2.2.1]heptane]
≥ 80%: inhibition at 75 g/ha [1] | inhibition at 1200 g/ha (Monochoria vaginalis [4]) | inhibition at 1200 g/ha [5] | inhibition at 75 g/ha (Scirpus juncoides [6]) | inhibition at 75 g/ha (Monochoria vaginalis [7]) | inhibition at 1200 g/ha (Echinochloa crus-galli [8]) | inhibition at 75 g/ha (Digitaria ciliaris [9]) | inhibition at 75 g/ha (Echinochloa crus-galli [10]) | inhibition at 75 g/ha [11]

CC(C)[C@]12C[C@@H](OCc3ccccc3F)[C@](C)(C[C@@H]1I)O2 [1-753, (1S,2R,4R,SS)-2-[(2-fluorophenyl)methoxy]-5-iodo-1-methyl-4-isopropyl-7-oxabicyclo[2.2.1]heptane]
≥ 80%: inhibition at 75 g/ha [1] | inhibition at 1200 g/ha (Scirpus juncoides [3]) | inhibition at 1200 g/ha (Monochoria vaginalis [4]) | inhibition at 1200 g/ha [5] | inhibition at 75 g/ha (Scirpus juncoides [6]) | inhibition at 75 g/ha (Monochoria vaginalis [7]) | inhibition at 1200 g/ha (Echinochloa crus-galli [8]) | inhibition at 75 g/ha (Digitaria ciliaris [9]) | inhibition at 75 g/ha (Echinochloa crus-galli [10]) | inhibition at 75 g/ha [11]

CCCO[C@H]1C[C@]2(C)O[C@@]1(C(C)C)C[C@H]2OCc1ccccc1F [1-1604, (1S,2R,4R,SS)-2-[(2-fluorophenyl)methoxy]-1-methyl-4-isopropyl-5-propoxy-7-oxabicyclo[2.2.1]heptane]
≥ 80%: inhibition at 75 g/ha [1] | inhibition at 1200 g/ha (Digitaria ciliaris [2]) | inhibition at 1200 g/ha (Scirpus juncoides [3]) | inhibition at 1200 g/ha [5] | inhibition at 75 g/ha (Scirpus juncoides [6]) | inhibition at 75 g/ha (Monochoria vaginalis [7]) | inhibition at 1200 g/ha (Echinochloa crus-galli [8]) | inhibition at 75 g/ha (Digitaria ciliaris [9]) | inhibition at 75 g/ha (Echinochloa crus-galli [10]) | inhibition at 75 g/ha [11]

Cc1cccc(C)c1CO[C@@H]1C[C@]2(C(C)C)O[C@@]1(C)CC2=O [2-5, (1R,4S,5R)-5-((2,6-dimethylbenzyl)oxy)-1-isopropyl-4-methyl-7-oxabicyclo[2.2.1]heptan-2-one]
≥ 80%: inhibition at 1200 g/ha (Digitaria ciliaris [2]) | inhibition at 1200 g/ha (Monochoria vaginalis [4]) | inhibition at 1200 g/ha [5] | inhibition at 75 g/ha (Scirpus juncoides [6]) | inhibition at 75 g/ha (Monochoria vaginalis [7]) | inhibition at 1200 g/ha (Echinochloa crus-galli [8]) | inhibition at 75 g/ha (Digitaria ciliaris [9]) | inhibition at 75 g/ha (Echinochloa crus-galli [10]) | inhibition at 75 g/ha [11]

CC(C)[C@]12C[C@@H](OCc3cccc(F)c3)[C@](C)(CC1=O)O2 [2-351, (1R,4S,5R)-5-((3-fluorobenzyl)oxy)-1-isopropyl-4-methyl-7-oxabicyclo[2.2.1]heptan-2-one]
≥ 80%: inhibition at 75 g/ha [1] | inhibition at 1200 g/ha (Digitaria ciliaris [2]) | inhibition at 1200 g/ha (Scirpus juncoides [3]) | inhibition at 1200 g/ha (Monochoria vaginalis [4]) | inhibition at 1200 g/ha [5] | inhibition at 75 g/ha (Scirpus juncoides [6]) | inhibition at 75 g/ha (Monochoria vaginalis [7]) | inhibition at 1200 g/ha (Echinochloa crus-galli [8]) | inhibition at 75 g/ha (Echinochloa crus-galli [10]) | inhibition at 75 g/ha [11]

Cc1ccccc1CO[C@@H]1C[C@@]2(C(C)C)C=C[C@]1(C)O2 [3-2, (1R,4S,5R)-4-methyl-5-[(2-methylphenyl)methoxy]-1-isopropyl-7-oxabicyclo[2.2.1]hept-2-ene]
≥ 80%: inhibition at 75 g/ha [1] | inhibition at 1200 g/ha (Scirpus juncoides [3]) | inhibition at 1200 g/ha (Monochoria vaginalis [4]) | inhibition at 1200 g/ha [5] | inhibition at 75 g/ha (Scirpus juncoides [6]) | inhibition at 75 g/ha (Monochoria vaginalis [7]) | inhibition at 1200 g/ha (Echinochloa crus-galli [8]) | inhibition at 75 g/ha (Digitaria ciliaris [9]) | inhibition at 75 g/ha (Echinochloa crus-galli [10]) | inhibition at 75 g/ha [11]

CC(C)[C@]12C=C[C@](C)(O1)[C@H](OCc1c(F)cccc1F)C2 [3-7, (1R,4S,5R)-5-[(2,6-difluorophenyl)methoxy]-4-methyl-1-isopropyl-7-oxabicyclo[2.2.1]hept-2-ene]
≥ 80%: inhibition at 75 g/ha [1] | inhibition at 1200 g/ha (Digitaria ciliaris [2]) | inhibition at 1200 g/ha (Scirpus juncoides [3]) | inhibition at 1200 g/ha [5] | inhibition at 75 g/ha (Scirpus juncoides [6]) | inhibition at 75 g/ha (Monochoria vaginalis [7]) | inhibition at 1200 g/ha (Echinochloa crus-galli [8]) | inhibition at 75 g/ha (Digitaria ciliaris [9]) | inhibition at 75 g/ha (Echinochloa crus-galli [10]) | inhibition at 75 g/ha [11]
